Experimental data reported in US6803368B2, “Antipsychotic aminomethyl derivatives of 7,8-dihydro-3H-6,9-dioxa-1,3-diaza-cyclopenta[a]naphthalene” (Wyeth, priority 2001, dated 2004).

Molecular target: T1, dopamine D2 receptor (Rattus norvegicus, UniProt P61169)
T1 construct: from tissue; host or cells: rat striatal brain tissue homogenate
Assay: Dopamine D2 receptor affinity, 3H-quinpirole binding in homogenized rat striatal brain tissue
Experimental: Affinity for the dopamine D2 receptor was established by a modification of the standard experimental test procedure of Seemen and Schaus, European Journal of Pharmacology 203: 105-109, 1991, wherein homogenized rat striatal brain tissue is incubated with ^3H-quinpirole and various concentrations of test compound, filtered and washed and counted in a Betaplate scintillation counter.

T1 sequence (P61169 whole entry): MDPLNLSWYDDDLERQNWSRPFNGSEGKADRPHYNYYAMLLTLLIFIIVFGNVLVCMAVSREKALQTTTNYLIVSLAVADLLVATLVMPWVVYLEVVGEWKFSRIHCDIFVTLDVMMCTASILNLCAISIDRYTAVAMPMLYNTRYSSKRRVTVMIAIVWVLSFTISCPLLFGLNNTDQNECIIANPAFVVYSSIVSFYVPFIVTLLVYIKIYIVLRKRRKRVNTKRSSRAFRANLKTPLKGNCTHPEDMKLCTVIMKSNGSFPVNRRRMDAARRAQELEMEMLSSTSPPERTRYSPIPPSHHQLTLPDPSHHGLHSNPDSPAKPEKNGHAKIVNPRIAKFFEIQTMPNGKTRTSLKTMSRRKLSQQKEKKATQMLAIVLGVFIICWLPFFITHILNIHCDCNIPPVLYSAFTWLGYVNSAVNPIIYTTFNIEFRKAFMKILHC

Molecule	IC50
(2-Trifluoromethyl-7,8-dihydro-3H-6,9-dioxa-1,3-diaza-cyclopenta[a]naphthalen-8-yl)-methylamine [Example 1]	260 nM
FC(F)(F)c1nc2c3c(ccc2[nH]1)OCC(CNCc1ccccc1)O3 (stereo not drawn) [Example 3, Benzyl-(2-trifluoromethyl-7,8-dihydro-3H-6,9-dioxa-1,3-diaza-cyclopenta[a]naphthalen-8-ylmethyl)-amine]	2.2 nM
FC(F)(F)c1nc2c3c(ccc2[nH]1)OC[C@H](CNCCCCc1ccccc1)O3 [Example 2, (4-Phenyl-butyl)-(2-trifluoromethyl-7,8-dihydro-3H-6,9-dioxa-1,3-diaza-cyclopenta[a]naphthalen-8-ylmethyl)-amine]	0.4 nM
